Measurements as given in patent US5959145A, “Fatty acid analog enzyme substrates” (priority 1993, dated 1999).

Test system: wheat germ NMT
Assay: in vitro myristoylation assay with partially purified wheat germ NMT
Format: biochemical
Conditions: fatty acid or analog at 5 μM, peptide varied; read-out: Km of peptide substrate Gly-Asn-Ala-Ala-Ser-[125I]Tyr-Arg-Arg
Description: Myristoyl CoA and fatty acid analog CoA were generated by incubation of the fatty acid or analog with CoA, ATP and CoA ligase. This reaction mixture was added to wheat germ NMT and Gly-Asn-Ala-Ala-Ser- [^125 I]Tyr-Arg-Arg in the presence of 0.03% Triton® X-100. Reaction products were characterized by reverse phase HPLC and gamma counting.
The invention is illustrated in greater detail in the following Examples 1 to 15 by the synthesis and testing of representative compounds of the invention as myristoylating enzyme substrates. Accordingly, the invention is first illustrated in Examples 1 to 5 by the chemical synthesis of a sulfur-containing analog of myristic acid, namely 11-(ethylthio)undecanoicacid, CH3 CH2 --S--(CH2)10 COOH, which is then tested in vitro as a wheat germ NMT substrate. Wheat germ NMT is a protein similar to yeast NMT. The purity and chemical identity of the synthesized compound were examined using ^1 H and ^13 C NMR as well as mass spectroscopy. The assay that was used to characterize the substrate specificity of wheat germ NMT measures the rate of attachment of a radiolabelled fatty acid to an unlabelled peptide. The fatty acid analog synthesized was nonradioactive.
Characterization of Partially Purified Wheat Germ NMT--Assays for NMT activity were performed using a procedure detailed previously by Towler and Glaser, Proc. Natl. Acad. Sci. USA 83, 2812-2816 (1986). Briefly, the in vitro assay measures the transfer of radiolabelled fatty acid from acyl CoA to a synthetic peptide substrate. The acylpeptide product is identified by reverse phase HPLC. Time and enzyme dependence were evaluated by varying the reaction time or the enzyme concentration. […] Fatty acid specificity was examined essentially as described by Towler et al., J. Biol. Chem. 262, 1030-1036 (1987), except that the peptide Gly-Ser-Ser-Lys-Ser-Lys-Pro-Lys rather than Gly-Asn-Ala-Ala-Ala-Ala-Arg-Arg was used to compare palmitate and myristate utilization by wheat germ NMT. This was necessary because of the presence of a large, peptide-independent peak which co-eluted with a palmitoyl-Gly-Asn-Ala-Ala-Ala-Ala-Arg-Arg standard. [^3 H]Palmitate and [^3 H]myristate were used in this comparison. [^14 C]fatty acids were used to compare C-10, C-12 and C-14 chain lengths. Fatty acyl CoA concentrations in these assays were determined by a modification of the method of Hosaka et al., Methods Enzymol. 71, 325-333 (1981).
Characterization of the Fatty Acid Analog--Gly-Asn-Ala-Ala-Ser-[^125 I]Tyr-Arg-Arg as prepared in Example 2, above, was tested in an in vitro myristoylation system which was modified from that used with radiolabelled fatty acids. […] 20-fold more wheat germ NMT (480-fold purified as in Example 3, above) was used for these assays than for assays which employed [^3 H] myristate. […] Double reciprocal plots were generated for the iodinated peptide with both myristic acid and the sulfur analog by altering the peptide concentration in the presence of a constant amount of fatty acid or analog. […] The assays contained 0.03% Triton X-100 to maintain the solubility of the fatty acids.

SMILES: CCCCCCCCCCCCCC(=O)O [myristic acid, reference compound]
- Km: 3000 nM
